Experimental findings from patent publication US20180282279A1, “Pantothenamide Analogues” (Radboud Universitair Medisch Centrum, priority 2014, published 2018) are described below.

Converted amounts (≈) assume the structure as drawn. “Also recorded” adds a separate entry of the source. Like-named read-outs stand apart in the source and are kept apart here.

Data set [1] can be described thus: Pharmacokinetic study in rats. As to conditions: rat, blood, 50 mg/kg in saline, oral administration. The data set is classed as in vivo. How it is done: To address the question if increased stability would also lead to improved bioavailability in vivo, a pharmacokinetic study was performed. Briefly, the pantothenamides N5-Pan (an antibacterial compound) and CXP18.3-002 (an antimalarial compound), and their corresponding inverted amides CXP18.6-013 and CXP18.6-006 were administered to rats at 50 mg/kg dissolved in saline. Blood samples were collected from 3 rats before the experiment and at 0.25, 0.5, 1, 2, 4, 6, 8, 12 and 24 h. The concentrations of the compounds were analyzed by LC-MS/MS (AB Sciex API-4000 system). Data were analyzed by the Non-compartmental analysis tool of Phoenix WinNonlin (Version 6.3).

The subject of data set [2] is fetal bovine serum as a source of pantetheinase activity. Description: Stability in vitro in fetal bovine serum (LC-MS). In kind it is in vitro ADME. How it is done: FIG. 1: Inverted amides are stable in serum. The stability of pantothenamide CXP18.3-002 (A-C) and its corresponding inverted amide CXP18.6-006 (D-F) was measured using LC-MS analysis after overnight incubation in buffer (A and D), buffer with 10% fetal bovine serum (B and E) and buffer with 10% FBS supplemented with the vanin inhibitor RR6 (C-F). Fetal bovine serum contains a high level of vanin (pantetheinase) activity. Both compounds are stable after incubation in buffer alone (figure A and D). The small peaks in the amine channels, with molecular masses of 163 (A) en 191 (D), are either the result of disruption of compound during ionization (CXP18.3-002-sample) or background from the buffer (CXP18.6-006-sample). […] Explanation of masses and compounds: CXP18.3-002, exact mass 322.189, found at mass 305 (—H2O (18)+H^+(1)). Amine from CXP18.3-002, exact mass 121.089, found at 163 (+ACN(41) +H^+(1)). Pantothenic acid, exact mass 219.111, found at mass 220 (+H^+(1)). RR6, exact mass 293.163, found at 294 (+H^+(1)). CXP18.6-006, exact mass 322.189, found at mass 305 (—H2O (18) +H^+(1)). Amine from CXP18.6-006, exact mass 150.068, found at 151 (+H^+(1)).
Conventional pantothenamides are hydrolysed by pantetheinases in body fluids as shown before (Jansen et al 2013) thereby losing their antimicrobial activity (Jansen et al 2013, Spry et al 2013, PLoS One 8:e54974). Bioisosteric pantothenamides retained their in vitro antimicrobial activity in the presence of serum, as will be shown in the next examples. To examine the stability of analogues in vitro, CXP18.3-002 and its bioisostere CXP18.6-006 were incubated for 16 h at room temperature in PBS with 10% fetal bovine serum as a source of pantetheinase activity. Samples were taken and analyzed by LC-MS using a Shimadzu LC10ATvp HPLC coupled to a Shimadzu LCMS2010 A mass spectrometer. […] The hydrolysis of the pantothenamides by fetal bovine serum could be inhibited by the addition of RR6, a potent inhibitor of pantetheinase activity, as described before (Jansen en al 2013).

Another data set relates to Staphylococcus aureus. Description: Bacterial growth assay and MIC determination, S. aureus. In kind it is cell-based. The note with it: Staphylococcus aureus. How it is done: Strains of Escherichia coli, Staphylococcus aureus and Staphylococcus epidermidis, were grown overnight in 1% Bacto tryptone medium (BD, Sparks, Md.). Streptococcus pyogenes was grown overnight in Bacto Todd Hewitt Broth medium (BD, Sparks, Md.). Cultures were then diluted 1:1,000 in fresh assay medium supplemented with or without 20% fetal bovine serum (FBS; HyClone, Celbio, Logan, Utah) and added to 96-well sterile enzyme-linked immunosorbent assay (ELISA) plates (100 μl per well). The compounds to be tested were diluted in the medium without serum and added to the bacteria (100 μl per well). Plates were incubated at 37° C., and bacterial growth was monitored over time by reading the optical density at 490 nm using a microplate reader (model 450; Bio-Rad Laboratories Inc., Hercules, Calif.). Streptococcus pneumoniae strains were grown to mid-log phase (OD620 of 0.3) and stored in 15% glycerol at […] till further use. Minimal inhibitory concentration (MIC) of antibiotics was determined according to standard procedures. Bacteria were diluted 10-fold in Mueller-Hinton medium (BD, Sparks, Md.) and added to 96-well sterile ELISA plates (150 μl per well). The compounds to be tested were diluted in the medium without serum and added to the bacteria (150 μl per well). Plates were incubated overnight at 37° C. in 5% CO2. The MIC was defined as the lowest concentration of compound at which no growth was visible with the naked eye.

As a reminder, the AUC(0-inf) is the area under the concentration-time curve extrapolated to infinity. Read a high AUC(0-inf) as high exposure. For orientation: Cmax means the peak of the concentration-time curve. As a reminder, the Tmax is the time at which the peak concentration occurs. The term half-life denotes the time in which the quantity being followed falls by half. Regarding `CC(C)(CO)[C@@H](O)C(=O)NCCNC(=O)CCc1ccccc1` [CXP18.6-006], in data set [1], the AUC(0-inf) came out at 6620 ng·h/mL, the Cmax is 3360 ng/mL and the Tmax stood at 0.33 h. The half-life in data set [1] (elimination phase) was 3.6 h. The “stability in buffer with 10% fetal bovine serum” value in data set [2] (PBS with 10% FBS, 16 h (overnight), room temperature) is “remains intact; also recorded: No appreciable degradation”. The “stability after overnight incubation in buffer” value in data set [2] (buffer alone) is given as “stable”. In data set [2] (overnight), the “stability in buffer with 10% FBS supplemented with the vanin inhibitor RR6” value was “had no effect”.

Regarding `CC(C)(CO)[C@@H](O)C(=O)NCCNC(=O)CCc1ccccc1F` [CXP18.6-017], the MIC amounted to 2 µg/mL (≈ 5.88 µM) in the data set on Staphylococcus aureus (S. aureus, serum −, read-out: MIC) and 2 µg/mL (≈ 5.88 µM) with Staphylococcus aureus (Table 1, most sensitive species S. aureus (SA), read-out: MIC (μg/ml) for most sensitive bacterial species).
